This note sets out measurements from ChEMBL document CHEMBL1146961, “Analogues of N-hydroxycinnamoylphenalkylamides as inhibitors of human melanocyte-tyrosinase” (Bioorg Med Chem Lett, 2006).

One data set concerns Rattus norvegicus. The data set can be described thus: Toxicity in rat at 2 g/kg, po. In kind it is organism-based. The settings on record: in vivo, 2000 mg/kg.
Data set [1] deals with Radical scavenging activity. The data set can be described thus: DPPH radical scavenging activity at 100 uM. It is filed as functional. (DPPH is a stable violet radical that fades when it is reduced.)

The structures appear in SMILES notation.

For `O=C(CCc1ccc(O)cc1)NCCc1ccc(O)cc1`, the Activity entry with Rattus norvegicus was “Not Active”.
For `O=C(CCc1ccc(O)c(O)c1)NCCc1ccc(O)cc1`, the Activity entry in the data set with Rattus norvegicus is recorded as “Not Active”.
On to `O=C(/C=C/c1ccc(O)c(O)c1)NCCc1ccc(O)c(O)c1`, for which, in data set [1], the Activity turned out to be 60%.
For the molecule `COc1cc(/C=C/C(=O)NCCc2ccc(O)c(O)c2)ccc1O`, the Activity in data set [1] is 60%.
Regarding `O=C(/C=C/c1ccc(O)c(O)c1)NCCc1ccc(O)cc1`, the Activity in data set [1] is 40%; with Rattus norvegicus it was “Not Active”.
`COc1cc(CNC(=O)/C=C/c2ccc(O)c(O)c2)ccc1O` registered an Activity in data set [1] of 60%.
